Where two headings read alike, the source gives them in different places.
Test system: erythrocytes infected with 3D7 trophozoites
Format: cell-based, Plasmodium falciparum
Settings: for Folate level, Log2 (treated vs control) / Geranylgeranyl pyrophosphate level, Log2 (treated vs control): sheet Log2; for Folate level, Log2 (treated vs control): medMz 440.132; for Geranylgeranyl pyrophosphate level, Log2 (treated vs control): medMz 449.186; for Ratio, Farnesyl diphosphate: metabolite Farnesyl diphosphate (medMz 381.123); for Ratio, Folate: metabolite Folate (medMz 440.132); for Ratio, Geranylgeranyl pyrophosphate: metabolite Geranylgeranyl pyrophosphate (medMz 449.186)

## COc1ccc2c(c1)OC(O)(C(F)(F)C(F)(F)F)CC2=O (stereo not shown) [MMV007839]
Av 6hr, 6 μM
  NADH log2 ratio (+MMV007839/-MMV007839): -2.783
  NADP+ log2 ratio (+MMV007839/-MMV007839): -0.3285
  Octoluse Bisphosphate log2 ratio (+MMV007839/-MMV007839): 0.9087
  Ornithine log2 ratio (+MMV007839/-MMV007839): -0.4177
  Orotate log2 ratio (+MMV007839/-MMV007839): -1.6355
  Orotidine 5-phosphate log2 ratio (+MMV007839/-MMV007839): -1.249
  Orotidine log2 ratio (+MMV007839/-MMV007839): -0.6749
  PAEF log2 ratio (+MMV007839/-MMV007839): 0.8061
  PAVH log2 ratio (+MMV007839/-MMV007839): -0.07734
  PD log2 ratio (+MMV007839/-MMV007839): 1.197
  PDAV log2 ratio (+MMV007839/-MMV007839): 1.2
  PE log2 ratio (+MMV007839/-MMV007839): 1.699
  PEE log2 ratio (+MMV007839/-MMV007839): 1.042
  PHF log2 ratio (+MMV007839/-MMV007839): 0.9826
  PPVQ log2 ratio (+MMV007839/-MMV007839): -0.2514
  PVNF log2 ratio (+MMV007839/-MMV007839): 0.6194
  PVQ log2 ratio (+MMV007839/-MMV007839): 1.502
  PVQA log2 ratio (+MMV007839/-MMV007839): -0.1116
  Pantothenate log2 ratio (+MMV007839/-MMV007839): -0.4384
  Phenylalanine log2 ratio (+MMV007839/-MMV007839): 0.1437
  Phosphoenolpyruvate log2 ratio (+MMV007839/-MMV007839): 0.09862
  Pipecolate log2 ratio (+MMV007839/-MMV007839): 1.035
  Proline log2 ratio (+MMV007839/-MMV007839): 0.2232
  Pyridoxine log2 ratio (+MMV007839/-MMV007839): 0.219
  Pyruvate log2 ratio (+MMV007839/-MMV007839): 2.1785
  Ribose-5-phosphate log2 ratio (+MMV007839/-MMV007839): 0.5462
  S-Adenosyl-L-homocysteine log2 ratio (+MMV007839/-MMV007839): -0.1116
  SDGLA log2 ratio (+MMV007839/-MMV007839): -0.7918
  SFGD log2 ratio (+MMV007839/-MMV007839): -0.1482
  Sedoheptoluse bisphosphate log2 ratio (+MMV007839/-MMV007839): -0.5568
  Sedoheptulose-1/7-phosphate log2 ratio (+MMV007839/-MMV007839): 0.1885
  Serine log2 ratio (+MMV007839/-MMV007839): 0.02139
  Succinate log2 ratio (+MMV007839/-MMV007839): 0.1816
  Succinate semialdehyde log2 ratio (+MMV007839/-MMV007839): -0.438
  TNVK log2 ratio (+MMV007839/-MMV007839): -0.1213
  Threonine log2 ratio (+MMV007839/-MMV007839): 0.6908
  Tryptophan log2 ratio (+MMV007839/-MMV007839): -0.04867
  Tyrosine log2 ratio (+MMV007839/-MMV007839): 0.1841
  UDP log2 ratio (+MMV007839/-MMV007839): -0.5016
  UDP-N-acetyl-D-glucosamine log2 ratio (+MMV007839/-MMV007839): -0.184
  UDP-glucose log2 ratio (+MMV007839/-MMV007839): 0.0071
  UMP log2 ratio (+MMV007839/-MMV007839): -0.08541
  Uracil log2 ratio (+MMV007839/-MMV007839): -0.6376
  Uric Acid log2 ratio (+MMV007839/-MMV007839): -0.1851
  VD log2 ratio (+MMV007839/-MMV007839): 1.833
  Valine log2 ratio (+MMV007839/-MMV007839): 0.1675
  Xanthine log2 ratio (+MMV007839/-MMV007839): -0.5471
  dADP log2 ratio (+MMV007839/-MMV007839): -0.4329
  dATP log2 ratio (+MMV007839/-MMV007839): 0.01926
  dCDP log2 ratio (+MMV007839/-MMV007839): 0.5589
  dGMP log2 ratio (+MMV007839/-MMV007839): -0.355
  dTMP log2 ratio (+MMV007839/-MMV007839): 0.4667
  dTTP log2 ratio (+MMV007839/-MMV007839): 0.06317
  dUMP log2 ratio (+MMV007839/-MMV007839): 1.053
  myo-Inositol log2 ratio (+MMV007839/-MMV007839): -0.254
  sn-Glycerol 3-phosphate log2 ratio (+MMV007839/-MMV007839): 1.275
  sn-glycero-3-Phospho-1-inositol log2 ratio (+MMV007839/-MMV007839): 0.1242
Av 6hr, 6 μM, medRt 15.0954
  Hexose-phosphate log2 ratio (+MMV007839/-MMV007839): -0.2639
Av 6hr, 6 μM, medRt 16.8944
  6-Phospho-D-gluconate log2 ratio (+MMV007839/-MMV007839): -0.736
Av 6hr, 6 μM, medRt 17.0788
  Hexose-phosphate log2 ratio (+MMV007839/-MMV007839): -1.183
Av 6hr, 6 μM, medRt 17.4636
  6-Phospho-D-gluconate log2 ratio (+MMV007839/-MMV007839): -0.3794
Exp1, 1hr
  Folate level, Log2 (treated vs control): -0.2263
  Geranylgeranyl pyrophosphate level, Log2 (treated vs control): -0.6569
Exp1, 3hr
  Folate level, Log2 (treated vs control): -0.3477
  Geranylgeranyl pyrophosphate level, Log2 (treated vs control): -0.8295
Exp1, 6hr
  Folate level, Log2 (treated vs control): -0.6125
  Geranylgeranyl pyrophosphate level, Log2 (treated vs control): -0.9068
Exp2, 1hr
  Folate level, Log2 (treated vs control): -0.1779
  Geranylgeranyl pyrophosphate level, Log2 (treated vs control): -0.5207
Exp2, 3hr
  Folate level, Log2 (treated vs control): -0.4245
  Geranylgeranyl pyrophosphate level, Log2 (treated vs control): -0.4872
Exp2, 6hr
  Folate level, Log2 (treated vs control): -0.3923
  Geranylgeranyl pyrophosphate level, Log2 (treated vs control): -0.5435
Exp3, 1hr
  Folate level, Log2 (treated vs control): -0.2907
  Geranylgeranyl pyrophosphate level, Log2 (treated vs control): -0.5583
Exp3, 3hr
  Folate level, Log2 (treated vs control): -0.3083
  Geranylgeranyl pyrophosphate level, Log2 (treated vs control): -0.7313
Exp3, 6hr
  Folate level, Log2 (treated vs control): -0.4777
  Geranylgeranyl pyrophosphate level, Log2 (treated vs control): -0.686
Exp1_1hr
  Ratio, Farnesyl diphosphate: 1.012
  Ratio, Folate: 0.8548
  Ratio, Geranylgeranyl pyrophosphate: 0.6342
Exp1_3hr
  Ratio, Farnesyl diphosphate: 0.9128
  Ratio, Folate: 0.7858
  Ratio, Geranylgeranyl pyrophosphate: 0.5627
Exp1_6hr
  Ratio, Farnesyl diphosphate: 0.7497
  Ratio, Folate: 0.6541
  Ratio, Geranylgeranyl pyrophosphate: 0.5334
Exp2_1hr
  Ratio, Farnesyl diphosphate: 1.018
  Ratio, Folate: 0.884
  Ratio, Geranylgeranyl pyrophosphate: 0.697
Exp2_3hr
  Ratio, Farnesyl diphosphate: 1.006
  Ratio, Folate: 0.7451
  Ratio, Geranylgeranyl pyrophosphate: 0.7134
Exp2_6hr
  Ratio, Farnesyl diphosphate: 0.9903
  Ratio, Folate: 0.7619
  Ratio, Geranylgeranyl pyrophosphate: 0.6861
Exp3_1hr
  Ratio, Farnesyl diphosphate: 0.9698
  Ratio, Folate: 0.8175
  Ratio, Geranylgeranyl pyrophosphate: 0.6791
Exp3_3hr
  Ratio, Farnesyl diphosphate: 1
  Ratio, Folate: 0.8076
  Ratio, Geranylgeranyl pyrophosphate: 0.6023
Exp3_6hr
  Ratio, Farnesyl diphosphate: 0.7551
  Ratio, Folate: 0.7181
  Ratio, Geranylgeranyl pyrophosphate: 0.6216

— PMC5298231, “The Malaria Parasite's Lactate Transporter PfFNT Is the Target of Antiplasmodial Compounds Identified in Whole Cell Phenotypic Screens” (PLoS Pathogens, 2017)
